Where a name gives a salt, the structure may show the parent alone.
How the values were obtained:
Assay type in all cases: cell-based
[1] = test system: HepG2 cells; assay: Measurement of triglyceride synthesis inhibitory ability; conditions: 24 hours, HepG2 cells, content of triglyceride formed, lower value = stronger inhibition; for Triglyceride (100 μM) aver.: 100 μM compound; for Triglyceride (500 μM) aver.: 500 μM compound
Procedure: (§1) 2 mM metformin was used as a comparative compound for each of the plates (control group).
HepG2 cells (ATCC: American Type Culture Collection) were cultured in 1% serum-containing media (DMEM (Gibco), FBS (Gibco)) for 24 hours, and then treated with 100 μM or 500 μM of each of the compounds prepared in Examples for 24 hours. Then, the cells were disrupted with a lysis solution (0.1 M potassium phosphate, pH 7.4, 0.05 M NaCl, 5 mM cholic acid, 0.1% Triton X-100). To the disrupted cells was added the same volume of a reaction solution (0.76 U/ml of a glycerol kinase (Asan Pharmaceutical Co., Ltd.), […] of a peroxidase (Asan Pharmaceutical Co., Ltd.), 22.2 U/ml of a glycerol oxidizing agent (Asan Pharmaceutical Co., Ltd.), and 300 μM of Amplex red as a fluorescent factor (Molecular Probe)), which was allowed to react at 37° C. for 30 minutes. After completion of the reaction, the content of triglyceride formed in the cell lysates was measured at a wavelength of 560/590 nm (ex/em) using a fluorescence microscope.
A lower measurement value means an increased triglyceride synthesis inhibitory ability.

[2] = test system: HepG2 cells; assay: Measurement of gluconeogenesis inhibitory ability; conditions: Homo sapiens, HepG2, 24 h, 100 μM compound, 24 hours, HepG2 cells; content of glucose formed from 14C-lactate; lower value = stronger inhibition; read-out: Gluconeogenesis inhibition (100 μM) aver.
Procedure: as §1
HepG2 cells (ATCC: American Type Culture Collection) were cultured in 10% serum-containing high glucose media, transferred to no serum-containing low glucose media (DMEM (Gibco), FBS (Gibco)), and then treated with 100 μM of each of the compounds for 24 hours. Then, the cells were treated with 0.5 μCi ^14C-lactate (Amersham Pharmacia) and 10 mM L-lactate (Sigma), and cultured for 4 hours. After cultivation, the media were removed therefrom, and the cells were washed with PBS, treated with 0.1N NaOH and kept at room temperature for 1 hour. Then, the cells were neutralized with 1N HCl, and the content of glucose formed in the cells was measured with a liquid scintillation counter.
A lower measurement value means an increased gluconeogenesis inhibitory ability.

[3] = test system: HepG2 cells; assay: Measurement of cholesterol synthesis inhibitory ability; conditions: for Cholesterol (100 μM) aver.: 100 μM compound; for Cholesterol (100 μM) aver. / Cholesterol (500 μM) aver.: 24 hours, HepG2 cells, content of cholesterol formed, lower value = stronger inhibition; for Cholesterol (500 μM) aver.: 500 μM compound
Procedure: as §1
A cholesterol synthesis inhibitory ability, which is an important function of AMPK (AMP-activated protein kinase), was measured using HepG2 cells (ATCC: American Type Culture Collection) as a hepatic cell model according to the following procedure.
The hepatic cell model HepG2 cells were cultured in 1% serum-containing media (DMEM (Gibco), FBS (Gibco)) for 24 hours, and then treated with 100 μM or 500 μM of each of the compounds prepared in Examples for 24 hours. Then, the cells were disrupted with a lysis solution (0.1 M potassium phosphate, pH 7.4, 0.05 M NaCl, 5 mM cholic acid, 0.1% Triton X-100 (Sigma)). To the disrupted cells was added the same volume of a reaction solution (2 U/ml of a cholesterol oxidizing agent, 2 U/ml of a peroxidase, 0.2 U/ml of a cholesterol esterase, and 300 μM of Amplex red as a fluorescent factor (Molecular Probe)), which was allowed to react at 37° C. for 30 minutes. After completion of the reaction, the content of cholesterol formed in the cell lysates was measured at a wavelength of 560/590 nm (ex/em) using a fluorescence microscope.
A lower measurement value means an increased cholesterol synthesis inhibitory ability.

SMILES	Triglyceride (100 μM) aver. [1]	Triglyceride (500 μM) aver. [1]	activity at 100 µM [2] [%]	Cholesterol (100 μM) aver. [3]	Cholesterol (500 μM) aver. [3]	effect in inhibiting cholesterol synthesis better than that of the control group ([3]; 100 μM compound versus 2 mM metformin)
CCN=C(NCc1ccc2c(c1)OCO2)NC(=N)N.Cl [Example 1, N1-benzo[1,3]dioxol-5-ylmethyl-N2-ethyl biguanide hydrochloride]	98.6	49.6	89.8	66.3	50.8	–
Cl.N=C(N)NC(=NC1CCCCC1)NCc1ccc2c(c1)OCO2 [Example 2, N1-benzo[1,3]dioxol-5-ylmethyl-N2-cyclohexyl biguanide hydrochloride]	108.9	26.9	95.2	43.7	15.6	–
N=C(N)NC(=Nc1cccc2ccccc12)NCc1ccc2c(c1)OCO2 [Example 3, N1-benzo[1,3]dioxol-5-ylmethyl-N2-(1-naphthyl)biguanide hydrochloride]	3.74	−6.97	3.27	8.11	28.8	–
CCCCCCN=C(NCc1ccc2c(c1)OCO2)NC(=N)N.Cl [Example 6, N1-benzo[1,3]dioxol-5-ylmethyl-N2-hexyl biguanide hydrochloride]	97.8	70.3	104	31.8	19.1	–
N=C(N)NC(=NCCc1ccccc1)NCc1ccc2c(c1)OCO2 [Example 7, N1-benzo[1,3]dioxol-5-ylmethyl-N2-(phenethyl)biguanide hydrochloride]	77.1	11.8	118	23.6	12.9	–
Cl.N=C(N)NC(=Nc1cccc(C(F)(F)F)c1)NCc1ccc2c(c1)OCO2 [Example 10, N1-benzo[1,3]dioxol-5-ylmethyl-N2-(3-trifluoromethylphenyl)biguanide hydrochloride]	11.52	–	2.76	33.41	–	–
Cc1ccc(CN=C(NCc2ccc3c(c2)OCO3)NC(=N)N)cc1.Cl [Example 11, N1-benzo[1,3]dioxol-5-ylmethyl-N2-(4-methylbenzyl)biguanide hydrochloride]	7.49	–	1.81	32.34	–	–
COc1ccc(OC)c(N=C(NCc2ccc3c(c2)OCO3)NC(=N)N)c1.Cl [Example 12, N1-benzo[1,3]dioxol-5-ylmethyl-N2-(2,5-dimethoxyphenyl)biguanide hydrochloride]	84.10	–	27.4	58.53	–	–
Cl.N=C(N)NC(=Nc1ccc2c(c1)Cc1ccccc1-2)NCc1ccc2c(c1)OCO2 [Example 13, N1-benzo[1,3]dioxol-5-ylmethyl-N2-(2-fluorenyl)biguanide hydrochloride]	9.22	–	2.15	31.42	–	–
Cl.N=C(N)NC(=Nc1ccc(F)cc1)NCc1ccc2c(c1)OCO2 [Example 14, N1-benzo[1,3]dioxol-5-ylmethyl-N2-(4-fluorophenyl)biguanide hydrochloride]	115.04	–	102	57.35	–	–
COc1ccc(N=C(NCc2ccc3c(c2)OCO3)NC(=N)N)cc1.Cl [Example 15, N1-benzo[1,3]dioxol-5-ylmethyl-N2-(4-methoxyphenyl)biguanide hydrochloride]	104.17	–	75.6	52.95	–	at least 20 times
CCCN=C(NCc1ccc2c(c1)OCO2)NC(=N)N.Cl [Example 16, N1-benzo[1,3]dioxol-5-ylmethyl-N2-propyl biguanide hydrochloride]	32.56	–	33.1	38.66	–	–
C=CCN=C(NCc1ccc2c(c1)OCO2)NC(=N)N [Example 18, N1-benzo[1,3]dioxol-5-ylmethyl-N2-allyl biguanide hydrochloride]	97.00	46.89	95.1	40.31	9.71	–
Cl.N=C(N)NC(=NC1CCCC1)NCc1ccc2c(c1)OCO2 [Example 19, N1-benzo[1,3]dioxol-5-ylmethyl-N2-cyclopentyl biguanide hydrochloride]	100.59	80.60	92.7	57.58	27.93	–
Cl.N=C(N)NC(=NC1CCCCCC1)NCc1ccc2c(c1)OCO2 [Example 20, N1-benzo[1,3]dioxol-5-ylmethyl-N2-cycloheptyl biguanide hydrochloride]	99.89	41.32	39.4	31.37	−14.69	–
CC(C)N=C(NCc1ccc2c(c1)OCO2)NC(=N)N.Cl [Example 22, N1-benzo[1,3]dioxol-5-ylmethyl-N2-isopropyl biguanide hydrochloride]	78.51	60.13	83	63.99	34.97	–
CC(C)CN=C(NCc1ccc2c(c1)OCO2)NC(=N)N.Cl [Example 23, N1-benzo[1,3]dioxol-5-ylmethyl-N2-isobutyl biguanide hydrochloride]	84.58	59.80	100	68.02	36.29	–
COc1cc(N=C(NCc2ccc3c(c2)OCO3)NC(=N)N)cc(OC)c1OC.Cl [Example 24, N1-benzo[1,3]dioxol-5-ylmethyl-N2-(3,4,5-trimethoxyphenyl)biguanide hydrochloride]	80.30	60.08	88.7	65.36	31.14	–
CCCCCCc1ccc(N=C(NCc2ccc3c(c2)OCO3)NC(=N)N)cc1.Cl [Example 25, N1-benzo[1,3]dioxol-5-ylmethyl-N2-(4-hexylphenyl)biguanide hydrochloride]	18.43	35.53	2.53	82.62	125.3	–
COc1cc(N=C(NCc2ccc3c(c2)OCO3)NC(=N)N)cc(OC)c1.Cl [Example 26, N1-benzo[1,3]dioxol-5-ylmethyl-N2-(3,5-dimethoxyphenyl)biguanide hydrochloride]	86.94	21.88	87.6	61.86	17.53	–
Cl.N=C(N)NC(=NC12CC3CC(CC(C3)C1)C2)NCc1ccc2c(c1)OCO2 [Example 27, N1-benzo[1,3]dioxol-5-ylmethyl-N2-(1-adamantyl)biguanide hydrochloride]	67.58	11.48	31.4	64.82	45.24	–
